Values quoted from earlier work, collected in paper PMC3665737 (Biochimica et biophysica acta, 2013).
Where a SMILES comes first, the peptide text is derived from it. [ ]: non-standard residue; d: D form. Nle = CCCC[C@H](N)C(=O)O

Experiments:
PKA (C subunit) = conditions: ALLN 500 μM, 30 min, 37 °C, ref [15]; for calpain dependence of induced PKA activity (effect of ALLN): oligomycin 5 μM, rotenone 10 μM, CCCP 5 μM, sodium azide 2 mM
[1] = system: regulatory subunits (RI and RII) of PKA; conditions: bovine heart mitochondria exposed to digitonin; ref [15]
mitochondrial calpain = conditions: bovine heart mitochondria; substrate N-succinyl-Leu-Tyr-7-amido-4-methylcoumarin; ref [15]
PKA = conditions: peptides 1 - 3, with 14-3-3 domain; ref [14]
R subunit = conditions: isolated R subunit; 10 μM CaCl2, 37 °C, 20 min; ref [15]
C subunit = conditions: isolated C subunit; Ca^2+ ≥ 100 μM, 37 °C, 20 min; ref [15]
R2C2 holoenzyme = conditions: 100 μM CaCl2, 0.5, 1.5, and 2.0 h, western blot, ref [15]

Molecule: N#CC(C#N)=NNc1cccc(Cl)c1 [CCCP, chlorophenylhydrazone]
- calpain dependence of induced PKA activity (effect of ALLN) (PKA (C subunit)): attenuated by ALLN

Molecule: C=C(C)[C@H]1Cc2c(ccc3c2O[C@@H]2COc4cc(OC)c(OC)cc4[C@@H]2C3=O)O1 [rotenone]
- calpain dependence of induced PKA activity (effect of ALLN) (PKA (C subunit)): attenuated by ALLN

Molecule: CC[C@H]1/C=C/C=C/C[C@@H](C)[C@H](O)[C@@](C)(O)C(=O)[C@@H](C)[C@H](O)[C@@H](C)C(=O)[C@@H](C)[C@H](O)[C@@H](C)/C=C/C(=O)O[C@@H]2[C@H](C)[C@H](CC1)O[C@]1(CC[C@H](C)[C@H](C[C@@H](C)O)O1)[C@H]2C [oligomycin]
- calpain dependence of induced PKA activity (effect of ALLN) (PKA (C subunit)): calpain independent

Molecule: [N-]=[N+]=[N-].[Na+] [azide, sodium azide]
- calpain dependence of induced PKA activity (effect of ALLN) (PKA (C subunit)): attenuated by ALLN

Molecule: CCCC[C@@H](C=O)NC(=O)[C@H](CC(C)C)NC(=O)[C@H](CC(C)C)NC(C)=O [ALLN, N-acetyl-Leu-Leu-Nle-al] (Ac-Leu-Leu-[Nle]-aldehyde)
- attenuation of PKA activity induced by rotenone, azide and CCCP (PKA (C subunit); western blot): attenuated

Molecule: C[C@@H]1CC[C@@]2(OC1)O[C@H]1[C@@H](O)[C@H]3[C@@H]4CC[C@H]5C[C@@H](O[C@@H]6O[C@H](CO)[C@H](O[C@@H]7O[C@H](CO)[C@@H](O)[C@H](O[C@@H]8OC[C@@H](O)[C@H](O)[C@H]8O)[C@H]7O[C@@H]7O[C@H](CO)[C@H](O)[C@H](O[C@@H]8O[C@H](CO)[C@@H](O)[C@H](O)[C@H]8O)[C@H]7O)[C@H](O)[C@H]6O)[C@H](O)C[C@]5(C)[C@H]4CC[C@]3(C)[C@H]1[C@@H]2C [digitonin]
- C subunit proteolysis [1]: the catalytic subunit (C) remained intact
- activation of mitochondrial calpain (mitochondrial calpain): direct activation of mitochondrial calpain

Molecule: CCCCc1ccc(Nc2ccc(Nc3ccc(CCCC)cc3S(=O)(=O)[O-])c3c2C(=O)c2ccccc2C3=O)c(S(=O)(=O)[O-])c1.[Na+].[Na+] [Acid green 27]
- PKA-induced fluorescence increase with quencher (PKA): dramatic PKA-induced fluorescence increase

B1: calpain I: Ca^2+-activated protease (protein, UniProt P07384 2-714; P04632 1-268, looked up)
Calpain-1 catalytic subunit: SEEIITPVYCTGVSAQVQKQRARELGLGRHENAIKYLGQDYEQLRVRCLQSGTLFRDEAFPPVPQSLGYKDLGPNSSKTYGIKWKRPTELLSNPQFIVDGATRTDICQGALGDCWLLAAIASLTLNDTLLHRVVPHGQSFQNGYAGIFHFQLWQFGEWVDVVVDDLLPIKDGKLVFVHSAEGNEFWSALLEKAYAKVNGSYEALSGGSTSEGFEDFTGGVTEWYELRKAPSDLYQIILKALERGSLLGCSIDISSVLDMEAITFKKLVKGHAYSVTGAKQVNYRGQVVSLIRMRNPWGEVEWTGAWSDSSSEWNNVDPYERDQLRVKMEDGEFWMSFRDFMREFTRLEICNLTPDALKSRTIRKWNTTLYEGTWRRGSTAGGCRNYPATFWVNPQFKIRLDETDDPDDYGDRESGCSFVLALMQKHRRRERRFGRDMETIGFAVYEVPPELVGQPAVHLKRDFFLANASRARSEQFINLREVSTRFRLPPGEYVVVPSTFEPNKEGDFVLRFFSEKSAGTVELDDQIQANLPDEQVLSEEEIDENFKALFRQLAGEDMEISVKELRTILNRIISKHKDLRTKGFSLESCRSMVNLMDRDGNGKLGLVEFNILWNRIRNYLSIFRKFDLDKSGSMSAYEMRMAIESAGFKLNKKLYELIITRYSEPDLAVDFDNFVCCLVRLETMFRFFKTLDTDLDGVVTFDLFKWLQLTMFA
Calpain small subunit 1: MFLVNSFLKGGGGGGGGGGGLGGGLGNVLGGLISGAGGGGGGGGGGGGGGGGGGGGTAMRILGGVISAISEAAAQYNPEPPPPRTHYSNIEANESEEVRQFRRLFAQLAGDDMEVSATELMNILNKVVTRHPDLKTDGFGIDTCRSMVAVMDSDTTGKLGFEEFKYLWNNIKRWQAIYKQFDTDRSGTICSSELPGAFEAAGFHLNEHLYNMIIRRYSDESGNMDFDNFISCLVRLDAMFRAFKSLDKDGTGQIQVNIQEWLQLTMYS
- R subunit digestion (R subunit): selectively digested
- C subunit digestion (C subunit): partial proteolysis
- subunit proteolysis in holoenzyme (R2C2 holoenzyme): proteolysis of the R subunit, but not the C subunit
